Assay results reported in ChEMBL document CHEMBL5029155, “Design, Synthesis, and Biological Evaluation of Stable Colchicine-Binding Site Tubulin Inhibitors 6-Aryl-2-benzoyl-pyridines as Potential Anticancer Agents” (J Med Chem, 2021).
pIC50: −log10 of the molar value. Converted amounts (≈) assume the structure as drawn. The source made the active and inactive calls. The rule behind the calls is not given here.

Experiments:
Salmonella typhimurium [1] = experiment: Mutagenicity in Salmonella typhimurium TA1537 by Ames test; type: toxicity, organism-based; conditions: salmonella enterica subsp. enterica serovar typhimurium
[2] = Clearance in NSG mouse at 10 mg/kg, ip; type: ADME, organism-based; conditions: in vivo
[3] = Half life in NSG mouse at 10 mg/kg, ip; type: ADME, organism-based; conditions: in vivo
[4] = biological target: T1, CYP1A2 (description prints CYP1AA) (Homo sapiens, UniProt P05177); experiment: Inhibition of […] in human liver microsomes using phenacetin as substrate at 10 uM; type: ADME; conditions: probe phenacetin
T1 sequence (P05177 whole entry): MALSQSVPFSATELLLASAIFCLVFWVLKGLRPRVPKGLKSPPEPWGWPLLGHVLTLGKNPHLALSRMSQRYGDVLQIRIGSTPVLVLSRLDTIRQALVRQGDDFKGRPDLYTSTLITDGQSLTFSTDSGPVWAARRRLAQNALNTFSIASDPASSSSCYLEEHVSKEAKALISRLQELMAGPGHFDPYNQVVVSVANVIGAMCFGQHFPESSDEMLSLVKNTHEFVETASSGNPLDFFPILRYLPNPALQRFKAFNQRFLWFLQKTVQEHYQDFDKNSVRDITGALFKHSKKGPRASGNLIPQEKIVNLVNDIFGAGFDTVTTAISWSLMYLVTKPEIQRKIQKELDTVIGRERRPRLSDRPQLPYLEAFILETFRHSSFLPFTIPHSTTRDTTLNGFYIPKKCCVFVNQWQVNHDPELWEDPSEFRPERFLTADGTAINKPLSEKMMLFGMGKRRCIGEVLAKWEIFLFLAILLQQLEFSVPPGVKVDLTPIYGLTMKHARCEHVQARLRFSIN

[5] = Metabolic stability in mouse liver microsomes assessed as intrinsic clearance in presence of NADPH regenerating system by UPLC-MS analysis; type: ADME, Microsome; conditions: read-out: CLH
[6] = Systemic toxicity in human A375/TxR cells xenografted in SCID mouse tumor model assessed as pathological change in spleen at 10 to 20 mg/kg, ip by H and E staining based analysis; type: organism-based; conditions: in vivo, dose 10-20 mg/kg
[7] = Metabolic stability in mouse liver microsomes assessed as half life in presence of NADPH regenerating system by UPLC-MS analysis; type: ADME, Microsome; conditions: microsomes
[8] = Metabolic stability in human liver microsomes assessed as half life in presence of NADPH regenerating system by UPLC-MS analysis; type: ADME, Microsome; conditions: microsomes
A375/TxR [9] = experiment: Antimetastatic activity against human A375/TxR cells xenografted in SCID mouse assessed as metastatic in liver at 20 mg/kg, ip; type: functional, organism-based
M14 = experiment: Antiproliferative activity against human M14 cells assessed as cell growth inhibition incubated for 72 hrs by MTS assay; type: functional, cell-based; conditions: M14, 72 h
[10] = Antimetastatic activity against human A375/TxR cells xenografted in SCID mouse assessed as metastatic in liver at 10 mg/kg, ip; type: functional
[11] = AUClast in NSG mouse at 10 mg/kg, ip; type: ADME, organism-based; parameters: time 0 - last, route intraperitoneal, dose 10 mg/kg; conditions: in vivo
CYP3A [12] = experiment: Inhibition of CYP3A in human liver microsomes using testosterone as substrate at 10 uM; type: ADME; conditions: probe testosterone
CYP3A [13] = experiment: Inhibition of CYP3A in human liver microsomes using midazolam as substrate at 10 uM; type: ADME; conditions: probe midazolam
[14] = Systemic toxicity in human A375/TxR cells xenografted in SCID mouse tumor model assessed as pathological change in lungs at 10 to 20 mg/kg, ip by H and E staining based analysis; type: organism-based; conditions: in vivo, dose 10-20 mg/kg
A375/TxR [15] = experiment: Induction of cell cycle arrest in human A375/TxR cells assessed as decrease in accumulation at G1 phase measured for 24 hrs by PI staining based flow cytometry analysis; type: functional
[16] = Induction of apoptosis in human A375/TxR cells assessed as apoptotic cells at 2.5 nM measured for 24 hrs by annexin VFITC /PI staining based analysis (reference value: […]); type: functional
Salmonella typhimurium [17] = experiment: Mutagenicity in Salmonella typhimurium TA1535 by Ames test; type: toxicity, organism-based; conditions: salmonella enterica subsp. enterica serovar typhimurium
[18] = Anticlonogenic activity against paclitaxel resistant human A-375 cells assessed as inhibition of colony formation at 5 nM treated for 7 days by crystal violet staining based microscopic analysis; type: functional, A375/TxR; parameters: scale not given: the % may be the effect or the level left; conditions: time 7 day
MDA-MB-231 = experiment: Cytotoxicity against human MDA-MB-231 cells measured after 72 hrs […]; type: functional, cell-based; conditions: MDA-MB-231, 72 h
[19] = Cmax in NSG mouse at 10 mg/kg, ip; type: ADME, organism-based; parameters: route intraperitoneal, dose 10 mg/kg; conditions: in vivo
A375/TxR [20] = experiment: Induction of cell cycle arrest in human A375/TxR cells assessed as decrease in accumulation at S phase measured for 24 hrs by PI staining based flow cytometry analysis; type: functional
CYP2B6 = biological target: T2, CYP2B6 (Homo sapiens, UniProt P20813); experiment: Inhibition of CYP2B6 in human liver microsomes using bupropion as substrate at 10 uM; type: ADME; conditions: probe bupropion
T2 sequence (P20813 whole entry): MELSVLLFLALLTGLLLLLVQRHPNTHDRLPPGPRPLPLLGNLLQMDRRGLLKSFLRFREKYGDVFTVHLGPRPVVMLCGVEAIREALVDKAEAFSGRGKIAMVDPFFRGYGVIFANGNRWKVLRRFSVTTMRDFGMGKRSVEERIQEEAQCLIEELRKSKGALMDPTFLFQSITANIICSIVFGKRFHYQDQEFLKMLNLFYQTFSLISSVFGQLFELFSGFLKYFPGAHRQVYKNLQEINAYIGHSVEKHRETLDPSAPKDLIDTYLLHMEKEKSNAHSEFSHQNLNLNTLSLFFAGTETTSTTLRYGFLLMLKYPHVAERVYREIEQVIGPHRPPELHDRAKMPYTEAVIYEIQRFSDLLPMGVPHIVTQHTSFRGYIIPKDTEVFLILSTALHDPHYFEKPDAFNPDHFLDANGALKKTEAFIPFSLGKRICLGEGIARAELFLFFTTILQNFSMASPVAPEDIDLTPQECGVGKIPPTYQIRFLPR

[21] = Aqueous solubility of compound in pH 7.4 PBS buffer; type: physicochemical
CYP2C8 = biological target: T3, CYP2C8 (Homo sapiens, UniProt P10632); experiment: Inhibition of CYP2C8 in human liver microsomes using amodiaquine as substrate at 10 uM; type: ADME; conditions: probe amodiaquine
T3 sequence (P10632 whole entry): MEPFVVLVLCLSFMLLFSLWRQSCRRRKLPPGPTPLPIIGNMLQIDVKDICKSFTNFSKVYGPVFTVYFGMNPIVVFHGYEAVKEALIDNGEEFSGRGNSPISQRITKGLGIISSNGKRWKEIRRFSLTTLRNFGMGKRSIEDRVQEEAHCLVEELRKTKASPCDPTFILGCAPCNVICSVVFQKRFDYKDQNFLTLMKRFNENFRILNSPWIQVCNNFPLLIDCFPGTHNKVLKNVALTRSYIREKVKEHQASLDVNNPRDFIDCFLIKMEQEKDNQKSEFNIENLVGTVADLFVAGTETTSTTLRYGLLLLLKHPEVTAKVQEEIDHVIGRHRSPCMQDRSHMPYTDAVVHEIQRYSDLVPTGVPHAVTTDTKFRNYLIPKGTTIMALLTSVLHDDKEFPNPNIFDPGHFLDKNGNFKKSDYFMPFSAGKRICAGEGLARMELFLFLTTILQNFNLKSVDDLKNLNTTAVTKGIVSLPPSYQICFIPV

COc1cc(C(=O)c2nc(-c3ccc(C)c(O)c3)ccc2F)cc(OC)c1OC
Activity (Salmonella typhimurium [1]): Non-Toxic | CL/F [2]: 34.1 mL/min/kg | half-life [3]: 4.39 h | inhibition at 10 µM [4]: 50.9% | CLint scaled [5]: 4.6 mL/min/kg | Activity [6]: Non-Toxic | t1/2 [7]: > 4 h | t1/2 [8]: 0.49 h | Activity (A375/TxR [9]): inactive | pIC50 (M14): 8.72 | Activity [10]: 33% | AUClast [11]: 4872.07 h/ng/mL | inhibition at 10 µM (CYP3A [12]): 51.8% | inhibition at 10 µM (CYP3A [13]): 34.7% | Activity [14]: Non-Toxic | Activity (A375/TxR [15]): Dose-Dependent Effect | Activity [16]: 14.5% | Activity (Salmonella typhimurium [17]): Non-Toxic | Activity [18]: 95% | pIC50 (MDA-MB-231): 8.24 | Cmax [19]: 6210 ng/mL | Activity (A375/TxR [20]): Dose-Dependent Effect | inhibition at 10 µM (CYP2B6): 12% | solubility [21]: 0.1 µM (≈ 0.0397 µg/mL) | inhibition at 10 µM (CYP2C8): 92.5%
